Data taken from patent US12152048B2, “Nitroxoline prodrug and use thereof” (Jiangsu Yahong Meditech Co., Ltd., priority 2018, dated 2024).
Values after ≈ are worked out from the molar mass of the structure shown.

Tests used:
[1] = Stability in mouse liver microsome; format: in vitro ADME; settings: 2 μM, 37° C., 30 minutes
[2] = Stability in human liver microsome; settings: 2 μM, 37° C., 30 minutes
[3] = Determination of water solubility in phosphate buffer; format: physicochemical; settings: for solubility at 24 h: aqueous buffer, thermodynamic from solid, phosphate buffer pH 7.4, room temperature; for water solubility compared with nitroxoline: conclusion in words
Excerpt: Experimental instruments: 96-well filter plate (MSHVN4510 or MSHVN4550, Millipore); electronic digital display vortex mixer (MS3 Digital, IKA); multi-purpose vacuum pump (circulating water type, SHB-111, Zhengzhou Greatwall Scientific Industrial and Trade Co., Ltd.); balance (XSLT05, Mettler-Toledo); comfortable mixer (Eppendorf AG 22331 Hamburg, Eppendorf); liquid chromatography (LC-3AD, Shimadzu); mass spectrometry (API4000, Applied Biosystems, USA); sample injector (Anylytics AG System, CTC). Nitroxoline was prepared according to the method disclosed in Journal of Heterocyclic Chemistry, 1971, vol. 8, p 821 by Wisdom Pharmaceutical Co., Ltd.
Experimental process: 500 μL of phosphate buffer (pH=1.2, 4.5, 6.8 or 7.4) were added to a glass flask, to which 2 mg of compound powder were added. The flask was sealed with a cap and shaked on a mixer (VORTEX-GENIE2) at room temperature for 24 hours. The solution was subjected to vacuum filtration, and the filtrate was processed to determine the compound concentration by LC/MS/MS.

[4] = Stability in dog liver microsome; settings: 2 μM, 37° C., 30 minutes
[5] = Stability in rat liver microsome; settings: 2 μM, 37° C., 30 minutes
Experimental: Experimental instruments: thermostatic shaker (SHA-B, Guohua Electric Appliance Co., Ltd.); centrifuge (5810R, Eppendorf); mass spectrometry (API4000, Applied Biosystems, USA); liquid chromatography (LC-30AD, Shimadzu); sample injector (CTC Analytics AG System, CTC).
Experimental process: 25 μg/mL alamethicin (Aldrich), 5 mM magnesium chloride and 0.5 mg/mL microsome (XENOTECH) were added to 100 mM phosphate buffer to obtain a coenzyme-free reaction solution. A portion of the coenzyme-free reaction solution was added with 1 mM reductive nicotinamide adenine dinucleotide phosphate (Aldrich) and 5 mM uridine diphosphate glucuronic acid (Aldrich) to obtain a coenzyme-containing reaction solution. The working solution of the compound of the present invention was added to the two reaction solutions so that the final concentration of the compound was 2 μM. Immediately after mixing well, 50 μL of the solution were taken out as the 0 minute sample, and 50 μL of the remaining sample were taken out after incubating at 37° C. for 30 minutes. All the samples taken out were immediately processed to precipitate protein, and centrifuged to obtain a supernate for the determination of the compound concentration by LC/MS/MS.

[6] = Stability in rat plasma
Excerpt: (§1) Experimental instruments: thermostatic shaker (SHA-B, Guohua Electric Appliance Co., Ltd.); centrifuge (5810R, Eppendorf); mass spectrometry (AP4000, Applied Biosystems, USA); liquid chromatography (LC-30AD, Shimadzu); sample injector (CTC Analytics AG System, CTC).
(§2) Test animals: plasma of human (batch number: BRH1343165), rat (batch number: RAT336728), mouse (batch number: MSE280000), dog (batch number: BGL99137) and monkey (batch number: PH-Monkey-20180821) are purchased from Shanghai Sixin Biological Technology Co., Ltd.
(§3) Experimental process: the compound of the present invention was dissolved in an organic solvent to obtain a 1 mM working solution. 3 μL of the working solution were added to 597 μL of pre-incubated human or rat plasma and mixed well. 50 μL of the solution were immediately taken out as the 0 minute sample. The remaining sample was incubated at 37° C., and 50 μL of sample were taken out at 15, 30, 60 and 120 minutes respectively. All the samples taken out were immediately processed to precipitate protein, and centrifuged to obtain a supermate for the determination of the compound concentration by LC/MS/MS.

[7] = Stability in plasma, overall conclusion (species not stated); settings: conclusion in words
[8] = Stability in human plasma
Excerpt: as §1, §2, §3

[9] = Stability in dog plasma; format: in vitro ADME
[10] = Stability in monkey plasma; format: in vitro ADME
Excerpt: as §1, §2, §3

| Percentage of the compound remaining in mouse liver microsome ([1]; with coenzyme) [%] | Percentage of the compound remaining in mouse liver microsome ([1]; without coenzyme) [%] | Percentage of the compound remaining in human liver microsome ([2]; with coenzyme) [%] | Percentage of the compound remaining in human liver microsome ([2]; without coenzyme) [%] | solubility at 24 h [3] [µg/mL] | Percentage of the compound remaining in dog liver microsome ([4]; with coenzyme) [%] | Percentage of the compound remaining in dog liver microsome ([4]; without coenzyme) [%] | Percentage of the compound remaining in rat liver microsome ([5]; with coenzyme) [%] | Percentage of the compound remaining in rat liver microsome ([5]; without coenzyme) [%] | Percentage of the compound remaining in plasma ([6]; 0 minute) [%] | Percentage of the compound remaining in plasma ([6]; 37° C., 15 minutes) [%] | Percentage of the compound remaining in plasma ([6]; 37° C., 30 minutes) [%] | Percentage of the compound remaining in plasma ([6]; 37° C., 60 minutes) [%] | Percentage of the compound remaining in plasma ([6]; 37° C., 120 minutes) [%] | Percentage of the compound remaining in plasma ([8]; 0 minute) [%] | Percentage of the compound remaining in plasma ([8]; 37° C., 15 minutes) [%] | Percentage of the compound remaining in plasma ([8]; 37° C., 30 minutes) [%] | Percentage of the compound remaining in plasma ([8]; 37° C., 60 minutes) [%] | Percentage of the compound remaining in plasma ([8]; 37° C., 120 minutes) [%] | SMILES | also measured |
| --- | --- | --- | --- | --- | --- | --- | --- | --- | --- | --- | --- | --- | --- | --- | --- | --- | --- | --- | --- | --- |
| 0.02 | 4.32 | 9.77 | 74.45 | 540 (≈ 1000 µM) | 13.05 | 67.43 | 0.06 | 12.10 | – | – | – | – | – | – | – | – | – | – | CN(CC(=O)OCc1cccnc1N(C)C(=O)OCOc1ccc([N+](=O)[O-])c2cccnc12)C(=O)C(C)(C)C [Compound 66] | water solubility compared with nitroxoline [3]: increased by several times |
| – | – | – | – | – | – | – | – | – | 100.0 | 95.8 | 94.1 | 92.4 | 92.4 | 100.0 | 102.3 | 100.9 | 103.1 | 100.3 | C[C@@H]1CN(C(=O)OCOc2ccc([N+](=O)[O-])c3cccnc23)C[C@H](C)O1 [Compound 59, (2S,6R)-(5-nitroquinolin-8-yloxy)methyl 2,6-dimethylmorpholine-4-carboxylate] | stability in plasma [7]: high stability; Percentage of the compound remaining in plasma ([9]; 0 minute): 100.0%; Percentage of the compound remaining in plasma ([9]; 37° C., 15 minutes): 96.7%; Percentage of the compound remaining in plasma ([9]; 37° C., 30 minutes): 95.0%; Percentage of the compound remaining in plasma ([9]; 37° C., 60 minutes): 102.8%; Percentage of the compound remaining in plasma ([9]; 37° C., 120 minutes): 99.9% |
| 0.01 | 0.03 | 0.03 | 0.03 | 105 (≈ 344 µM) | 0.01 | 0.01 | 0.01 | 0.03 | – | – | – | – | – | – | – | – | – | – | CC(OC(=O)C(C)C)Oc1ccc([N+](=O)[O-])c2cccnc12 (centres unmarked) [Compound 49, 1-(5-nitroquinolin-8-yloxy)ethyl isobutyrate] | – |
| 0.01 | 0.01 | 0.05 | 0.06 | 59.2 (≈ 204 µM) | 0.16 | 0.19 | 0.08 | 0.04 | – | – | – | – | – | – | – | – | – | – | CC(C)C(=O)OCOc1ccc([N+](=O)[O-])c2cccnc12 [Compound 3, (5-nitroquinolin-8-yloxy)methyl isobutyrate] | – |
| 0.04 | 0.04 | 0.03 | 0.02 | 285 | 0.01 | 0.02 | 0.01 | 0.02 | – | – | – | – | – | – | – | – | – | – | CC(=O)OC(C)Oc1ccc([N+](=O)[O-])c2cccnc12 (centres unmarked) [Compound 47, 1-(5-nitroquinolin-8-yloxy)ethyl acetate] | – |
| 0.72 | 2.63 | 29.88 | 39.15 | 965 (≈ 1940 µM) | 65.08 | 93.36 | 4.33 | 59.38 | – | – | – | – | – | – | – | – | – | – | CC(=O)N(C)CC(=O)OCc1cccnc1N(C)C(=O)OCOc1ccc([N+](=O)[O-])c2cccnc12 [Compound 65] | water solubility compared with nitroxoline [3]: increased by several times |
| – | – | – | – | – | – | – | – | – | 100.0 | 92.4 | 97.3 | 95.8 | 89.0 | 100.0 | 95.4 | 101.8 | 99.7 | 92.7 | CC1CN(C(=O)OCOc2ccc([N+](=O)[O-])c3cccnc23)CCO1 (centres unmarked) [Compound 62, (5-nitroquinolin-8-yloxy)methyl 2-methylmorpholine-4-carboxylate] | stability in plasma [7]: high stability |
| – | – | – | – | – | – | – | – | – | 100.0 | 0.0 | 0.0 | 0.0 | 0.0 | 100.0 | 95.2 | 83.6 | 60.9 | 21.6 | COC(=O)[C@H](Cc1ccccc1)NC(=O)OCOc1ccc([N+](=O)[O-])c2cccnc12 [Compound 58, methyl (S)-2-(((5-nitroquinolin-8-yloxy)methoxy)formamido)-3-phenylpropionate] | stability in plasma [7]: high stability; Percentage of the compound remaining in plasma ([9]; 0 minute): 100.0%; Percentage of the compound remaining in plasma ([9]; 37° C., 15 minutes): 96.3%; Percentage of the compound remaining in plasma ([9]; 37° C., 30 minutes): 90.4%; Percentage of the compound remaining in plasma ([9]; 37° C., 60 minutes): 74.4%; Percentage of the compound remaining in plasma ([9]; 37° C., 120 minutes): 49.8% |
| 0.16 | 0.27 | 0.24 | 0.76 | 91.1 | 0.42 | 0.73 | 0.15 | 0.27 | – | – | – | – | – | – | – | – | – | – | CC(=O)OCOc1ccc([N+](=O)[O-])c2cccnc12 [Compound 1, (5-nitroquinolin-8-yloxy)methyl acetate] | – |
| 0.10 | 0.02 | 0.27 | 0.16 | 72.7 (≈ 263 µM) | 0.13 | 0.18 | 0.52 | 0.45 | – | – | – | – | – | – | – | – | – | – | CCC(=O)OCOc1ccc([N+](=O)[O-])c2cccnc12 [Compound 2, (5-nitroquinolin-8-yloxy)methyl propionate] | – |
| – | – | – | – | – | – | – | – | – | 100.0 | 0.0 | 0.0 | 0.0 | 0.0 | 100.0 | 80.9 | 70.7 | 54.7 | 31.4 | CC(C)(C)C(=O)OCOc1ccc([N+](=O)[O-])c2cccnc12 [Compound 4, (5-nitroquinolin-8-yloxy)methyl pivalate] | Percentage of the compound remaining in plasma ([10]; 0 minute): 100.0%; Percentage of the compound remaining in plasma ([10]; 37° C., 15 minutes): 4.8%; Percentage of the compound remaining in plasma ([10]; 37° C., 30 minutes): 0.3%; Percentage of the compound remaining in plasma ([10]; 37° C., 60 minutes): 0.0%; Percentage of the compound remaining in plasma ([10]; 37° C., 120 minutes): 0.0%; Percentage of the compound remaining in plasma ([9]; 0 minute): 100.0%; Percentage of the compound remaining in plasma ([9]; 37° C., 15 minutes): 80.0%; Percentage of the compound remaining in plasma ([9]; 37° C., 30 minutes): 56.3%; Percentage of the compound remaining in plasma ([9]; 37° C., 60 minutes): 32.7%; Percentage of the compound remaining in plasma ([9]; 37° C., 120 minutes): 18.2% |

| SMILES | Percentage of the compound remaining in mouse liver microsome ([1]; with coenzyme) [%] | Percentage of the compound remaining in mouse liver microsome ([1]; without coenzyme) [%] | Percentage of the compound remaining in human liver microsome ([2]; with coenzyme) [%] | Percentage of the compound remaining in human liver microsome ([2]; without coenzyme) [%] | solubility at 24 h [3] [µg/mL] | Percentage of the compound remaining in dog liver microsome ([4]; with coenzyme) [%] | Percentage of the compound remaining in dog liver microsome ([4]; without coenzyme) [%] | Percentage of the compound remaining in rat liver microsome ([5]; with coenzyme) [%] | Percentage of the compound remaining in rat liver microsome ([5]; without coenzyme) [%] | Percentage of the compound remaining in plasma ([6]; 0 minute) [%] | Percentage of the compound remaining in plasma ([6]; 37° C., 15 minutes) [%] | Percentage of the compound remaining in plasma ([6]; 37° C., 30 minutes) [%] | Percentage of the compound remaining in plasma ([6]; 37° C., 60 minutes) [%] | Percentage of the compound remaining in plasma ([6]; 37° C., 120 minutes) [%] | Percentage of the compound remaining in plasma ([8]; 0 minute) [%] | Percentage of the compound remaining in plasma ([8]; 37° C., 15 minutes) [%] | Percentage of the compound remaining in plasma ([8]; 37° C., 30 minutes) [%] | Percentage of the compound remaining in plasma ([8]; 37° C., 60 minutes) [%] | Percentage of the compound remaining in plasma ([8]; 37° C., 120 minutes) [%] | also measured |
| --- | --- | --- | --- | --- | --- | --- | --- | --- | --- | --- | --- | --- | --- | --- | --- | --- | --- | --- | --- | --- |
| CN(C)C(=O)Oc1ccc([N+](=O)[O-])c2cccnc12 [Compound 78, 5-nitroquinolin-8-yl dimethylcarbamate] | 0.00 | 100.18 | 14.46 | 90.37 | 226 (≈ 863 µM) | 0.36 | 98.41 | 2.40 | 91.50 | – | – | – | – | – | – | – | – | – | – | – |
